In ChEMBL document CHEMBL4689842, “EUbOPEN Chemogenomics Library wave 1” (2021):

Key:
Fibroblast = assay: Incucyte cell viability with human fibroblast; assay type: toxicity, cell-based; settings: 10 µM, compound concentration 10 uM
HEK-293T = assay: Incucyte cell viability with HEK293T; assay type: toxicity, cell-based; settings: human, 10 µM, compound concentration 10 uM
[1] = 0 h, replicate number 1, timepoint 0 hours
[2] = 6 h, replicate number 1, timepoint 6 hours
[3] = 12 h, replicate number 1, timepoint 12 hours
[4] = 18 h, replicate number 1, timepoint 18 hours
[5] = 24 h, replicate number 1, timepoint 24 hours
[6] = 0 h, replicate number 2, timepoint 0 hours
[7] = 6 h, replicate number 2, timepoint 6 hours
[8] = 24 h, replicate number 2, timepoint 24 hours
[9] = 12 h, replicate number 2, timepoint 12 hours
[10] = 18 h, replicate number 2, timepoint 18 hours
Also: filed as whole numbers so only -1 and 0 and 1 occur.

| Structure (SMILES) | Growth Rate (Fibroblast; [1]) | Growth Rate (Fibroblast; [2]) | Growth Rate (Fibroblast; [3]) | Growth Rate (Fibroblast; [4]) | Growth Rate (Fibroblast; [5]) | Growth Rate (HEK-293T; [6]) | Growth Rate (HEK-293T; [2]) | Growth Rate (HEK-293T; [3]) | Growth Rate (HEK-293T; [4]) | Growth Rate (HEK-293T; [5]) | Growth Rate (Fibroblast; [6]) | Growth Rate (HEK-293T; [1]) | Growth Rate (HEK-293T; [7]) | Growth Rate (Fibroblast; [8]) | Growth Rate (Fibroblast; [9]) | Growth Rate (HEK-293T; [8]) | Growth Rate (HEK-293T; [9]) | Growth Rate (HEK-293T; [10]) | Growth Rate (Fibroblast; [10]) | Growth Rate (Fibroblast; [7]) |
| --- | --- | --- | --- | --- | --- | --- | --- | --- | --- | --- | --- | --- | --- | --- | --- | --- | --- | --- | --- | --- |
| S=C(NCCCc1c[nH]cn1)NCCCN(Cc1ccc(Cl)c(Cl)c1)c1ccc(Br)cn1 | 0 | 0 | 0 | 0 | 0 | 0 | 0 | 0 | 0 | 0 |  |  |  |  |  |  |  |  |  |  |
| Cc1cc(C)c(S(=O)(=O)N(Cc2ccc(-c3cccc(S(C)(=O)=O)c3)cc2)Cc2ccc(C(F)(F)F)o2)c(C)c1 | 1 | 1 | 0 | 0 | 0 |  | 0 | 0 | 0 | 0 | 0 | 0 | 1 |  |  |  |  |  |  |  |
| CCc1cccc(CC)c1NC(=O)c1nn(C)c2c1CCc1cnc(Nc3ccc(C(=O)NC4CCN(C)CC4)cc3OC(F)(F)F)nc1-2 | 0 | 1 | 0 | 0 | 0 |  | 0 | 0 | 0 | 0 |  |  |  | 1 |  |  |  |  |  |  |
| Cl.Oc1ccc2c3c1O[C@H]1c4[nH]c5c(c4C[C@@]4(O)[C@@H](C2)N(CC2CC2)CC[C@]314)C[C@@]1(O)[C@H]2Cc3ccc(O)c4c3[C@@]1(CCN2CC1CC1)[C@H]5O4 | 0 | 0 | 0 | 0 | 0 |  | 1 | 1 | 1 | 1 | 1 | 0 |  | 1 | 1 | 0 |  |  |  |  |
| O=C(Nc1cccnn1)N1CCC(=Cc2cccc(Oc3ccc(C(F)(F)F)cn3)c2)CC1 | 0 | 0 | 0 | 0 | 0 | 1 | 0 | 0 | 0 | 0 |  |  |  | 1 |  |  |  |  |  |  |
| COc1cc(N2CCN(C)CC2)ccc1Nc1ncc2c(n1)N(C)c1ccccc1C(=O)N2C | 0 |  | 0 | 1 | 1 |  |  |  | 1 | 0 |  | 1 | 1 |  |  |  | 0 | 0 |  |  |
| CCNc1cc(N[C@H]2CC[C@H](O)CC2)nc(Nc2ccc3c(ccn3Cc3ccccc3)c2)n1 |  | 0 | 0 | 0 | 0 |  | 0 | 0 | 0 | 0 |  |  |  |  |  |  |  |  |  |  |
| CCOc1cc(C(=O)N2CCC(N3CCN(C)CC3)CC2)ccc1Nc1ncc2c(n1)N(C1CCCC1)c1ccccc1C(=O)N2C |  | 1 | 0 | 0 | 0 | 0 | 0 | 0 | 0 | 0 | 0 |  |  | 1 |  |  |  |  | 1 |  |
| O=C1N/C(=N/c2ccccc2F)S/C1=C\c1ccc(C(=O)O)cc1 |  |  |  |  | 0 |  |  | 1 |  | 1 |  |  |  |  |  |  |  |  |  |  |
| CN([C@@H](Cc1ccc(OS(=O)(=O)c2cccc3cnccc23)cc1)C(=O)N1CCN(c2ccccc2)CC1)S(=O)(=O)c1cccc2cnccc12 | 1 |  | 1 | 1 | 0 | 1 | 0 | 0 | 0 | 0 |  |  |  | 1 | 0 |  |  |  |  | 0 |
| O=C(Nc1ccc(Cl)cc1)Nc1cccc(-c2cccc(N3CCCC3)n2)c1 | 0 | 0 | 0 | 0 | 0 | 0 | 0 | 0 | 0 | 0 |  | 1 |  |  |  |  |  |  |  |  |
| CCn1c(=O)c(-c2ccc(-c3cncs3)cc2Cl)cc2cnc(Nc3ccc(N4CCN(C)CC4)cc3)nc21 | 0 |  |  | 1 | 0 |  | 0 |  |  | 1 |  | 0 |  |  |  | 0 | 0 | 1 |  |  |
| Cc1ccc(C(=O)Nc2cccc(C(F)(F)F)c2)cc1Nc1nc(-c2cccnc2)nc2c1cnn2C |  | 0 | 0 | 0 | 0 |  | 0 | 0 | 0 | 0 |  | 0 |  |  |  |  |  |  |  |  |
| CCCS(=O)(=O)c1nc(NC2CC2)cc(-c2ccc3c(ccn3C3CC(C)(C)NC(C)(C)C3)c2)n1 | 0 | 0 | 0 | 0 | 0 | 0 | 0 | 0 | 0 | 0 |  |  |  |  |  |  |  |  | 1 |  |
| COC(=N)c1nc2ccc3ncnc(Nc4ccc(OC)cc4F)c3c2s1 | 0 |  | 1 | 1 | 0 | 1 | 0 | 0 | 0 | 0 |  | 0 |  |  |  |  |  |  |  |  |
